# Counter-ions that a name gives are not always drawn.
# Test system: not given
# Assay: not given
# Settings: not given
row,Compound,melting point
1,"O=C(NC(c1ccccc1)C12CCCC(CN1)C2)c1nccc(C(F)(F)F)c1Cl (racemic) (as salt: HCl) [Compound 3, N-[(6-Azabicyclo[3.2.1]oct-5-yl)phenylmethyl](3-chloro-4-trifluoromethyl)pyridine-2-carboxamide]",158 to 160 °C
2,"CSc1ncccc1C(=O)NC(c1ccc(F)cc1)C12CCCC(CN1)C2 (racemic) (as salt: HCl) [Compound 8, N-[(6-Azabicyclo[3.2.1]oct-5-yl)(4-fluorophenyl)methyl]-2-methylsulfanyl-nicotinamide]",234 to 236 °C
3,"CSc1ncccc1C(=O)NC(c1cccc(C)c1)C12CCCC(CN1)C2 (racemic) (as salt: HCl) [Compound 10, N-[(-6-Azabicyclo[3.2.1]oct-5-yl)-m-tolylmethyl]-2-methylsulfanylnicotinamide]",205 to 207 °C
4,"O=C(NC(c1cccc(C(F)(F)F)c1)C12CCCC(CN1)C2)c1nccc(C(F)(F)F)c1Cl (racemic) (as salt: HCl) [Compound 11, N-[(6-Azabicyclo[3.2.1]oct-5-yl)(3-trifluoromethylphenyl)methyl](3-chloro-4-trifluoromethyl)pyridine-2-carboxamide]",250.4 to 251.4 °C
5,"O=C(NC(c1ccccc1)C12CCCC(CN1)C2)c1cc(Cl)sc1Cl (racemic) [Compound 1, N-[(6-Azabicyclo[3.2.1]oct-5-yl)phenylmethyl](2,5-dichloro)thiophene-3-carboxamide]",95 to 97 °C
6,"Cn1cnc(C(=O)NC(c2ccccc2)C23CCCC(CN2)C3)c1 (racemic) [Compound 7, N-[(6-Azabicyclo[3.2.1]oct-5-yl)phenylmethyl](1-methyl)-1H-imidazole-4-carboxamide]",150 to 152 °C

# Target: T1, native human transporter GlyT1 (Homo sapiens, UniProt P48067)
# T1 construct: expressing the native human transporter GlyT1; endogenous in cells; host or cells: SK-N-MC (human neuroepithelial cells)
# T1 sequence (P48067 1-706): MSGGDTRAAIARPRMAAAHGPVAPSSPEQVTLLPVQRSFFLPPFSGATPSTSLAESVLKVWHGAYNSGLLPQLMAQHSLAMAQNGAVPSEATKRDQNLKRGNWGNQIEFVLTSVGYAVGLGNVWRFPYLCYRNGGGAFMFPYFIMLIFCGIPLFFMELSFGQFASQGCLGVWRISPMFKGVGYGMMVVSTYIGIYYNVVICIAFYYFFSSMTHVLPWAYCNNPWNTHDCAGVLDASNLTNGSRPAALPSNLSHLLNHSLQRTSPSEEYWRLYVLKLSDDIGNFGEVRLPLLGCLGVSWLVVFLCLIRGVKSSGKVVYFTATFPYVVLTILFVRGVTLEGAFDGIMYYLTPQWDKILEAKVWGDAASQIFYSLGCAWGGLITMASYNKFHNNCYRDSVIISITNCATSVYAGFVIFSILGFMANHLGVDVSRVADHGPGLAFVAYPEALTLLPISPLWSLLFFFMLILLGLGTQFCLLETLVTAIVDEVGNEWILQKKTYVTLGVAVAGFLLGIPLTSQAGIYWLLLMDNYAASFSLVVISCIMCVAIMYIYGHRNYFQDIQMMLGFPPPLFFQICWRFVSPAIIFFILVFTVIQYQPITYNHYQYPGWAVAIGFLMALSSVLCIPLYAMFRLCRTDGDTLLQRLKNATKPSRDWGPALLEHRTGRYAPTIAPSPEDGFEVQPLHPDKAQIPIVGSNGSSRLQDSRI
# Assay: Study of glycine transportation ([14C]glycine uptake) in SK-N-MC cells expressing the native human transporter GlyT1
# Type: cell-based
# Settings: 10 μM [14C]glycine, 10 min at 37° C., concentration which reduces by 50% the specific uptake of glycine, read-out: CI50 (the source's name)
# Method: Study of Glycine Transportation in SK-N-MC Cells Expressing the Native Human Transporter GlyT1.
# The uptake of [^14C]glycine is studied in SK-N-MC cells (human neuroepithelial cells) expressing the native human transporter GlyT1 by measuring the radioactivity incorporated in the presence or absence of the test compound. The cells are cultured as a monolayer for 48 hours in plates pretreated with 0.02% fibronectin. On the day of the experiment, the culture medium is removed and the cells are washed with Krebs-HEPES (4-(2-hydroxyethyl)piperazine-1-ethanesulphonic acid) buffer at pH 7.4. After preincubation for 10 minutes at 37° C. in the presence either of buffer (control batch) or of test compound at various concentrations or of 10 mM of glycine (determination of the non-specific uptake), 10 μM of [^14C]glycine (specific activity 112 mCi/mmol) are subsequently added. Incubation is continued for 10 min at 37° C. and the reaction is halted by washing twice with pH 7.4 Krebs-HEPES buffer. The radioactivity incorporated by the cells is then estimated after adding 100 μl of liquid scintillant and stirring for 1 h. Counting is carried out on a Microbeta Tri-Lux™ counter. The effectiveness of the compound is determined by the IC50, the concentration of the compound which reduces by 50% the specific uptake of glycine, defined by the difference in radioactivity incorporated by the control batch and the batch which received the 10 mM glycine.
row,Compound,IC50
1,"CSc1ncccc1C(=O)NC(c1ccccc1)C12CCCC(CN1)C2 (racemic) [Compound 2, N-[(6-azabicyclo[3.2.1]oct-5-yl)phenylmethyl](2-methylsulphanyl)nicotinamide]",140 nM
2,"O=C(NC(c1ccccc1)C12CCCC(CN1)C2)c1nccc(C(F)(F)F)c1Cl (racemic) [Compound 3, N-[(6-Azabicyclo[3.2.1]oct-5-yl)phenylmethyl](3-chloro-4-trifluoromethyl)pyridine-2-carboxamide]",220 nM
3,"CSc1ncccc1C(=O)NC(c1ccc(F)cc1)C12CCCC(CN1)C2 (racemic) [Compound 8, N-[(6-Azabicyclo[3.2.1]oct-5-yl)(4-fluorophenyl)methyl]-2-methylsulfanyl-nicotinamide]",130 nM
4,"O=C(NC(c1cccc(C(F)(F)F)c1)C12CCCC(CN1)C2)c1nccc(C(F)(F)F)c1Cl (racemic) [Compound 11, N-[(6-Azabicyclo[3.2.1]oct-5-yl)(3-trifluoromethylphenyl)methyl](3-chloro-4-trifluoromethyl)pyridine-2-carboxamide]",170 nM
5,"O=C(NC(c1ccccc1)C12CCCC(CN1)C2)c1cccc2c1ccn2Cc1ccccc1 (centres unmarked) [Compound 6, [(6-Azabicyclo[3.2.1]oct-5-yl)phenylmethyl](1-benzyl)-1H-indole-4-carboxamide]",610 nM

# Reference: patent US20120029027A1, “N-[(6-AZA-BICYCLO[3.2.1]OCT-5-YL)-ARYL-METHYL]-HETEROBENZAMIDE DERIVATIVES, PREPARATION THEREOF, AND THERAPEUTIC USE OF SAME” (SANOFI, priority 2009, published 2012)
